The values that follow come from patent US10709745B2, “Tropic cell based virotherapy for the treatment of cancer” (priority 2013, dated 2020).

Read-outs that look alike come from different tables or passages of the source.

For orientation: IC50 means the point on the concentration scale where inhibition reaches its midpoint.

Assay [1] has as its system HB1.F3-CD. Nature of the assay: TMZ IC50 with simultaneous XRT. Format: cell-based. The note with it: Homo sapiens; treated with XRT (2 Gy) simultaneously. The method, then: (§1) For all studies, the cells and mice received XRT in accordance with the University of Chicago's radiation safety guidelines and protocols. All cells received a single dose of 2 Gy XRT. For animal studies, 10 Gy fractioned dose radiotherapy (2 Gy for 5 consecutive days) was used. The animals were irradiated with a lead cover shielding their entire body, with only their heads exposed. […] For in vivo studies, the mice received 2.5, 5, 10, or 30 mg/kg TMZ via intraperitoneal injection.
NSCs have an inherent pathotropism toward glioma, which is critical for their utility as cell carriers. Therefore, it is critical that such intrinsic molecular properties and phenotypes of NSCs are maintained during radio-chemotherapy (XRT-TMZ). […] Oct4, a marker of self-renewal for undifferentiated cells, was expressed in 87.6±1.1% of the loaded NSCs. […] The percentage of Oct4 positive cells decreased to 81±2% (*, p<0.05), whereas the MFI was not reduced. […] Because of the high priority of safety when working with the undifferentiated v-myc immortalized HB1.F3-CD stem cell line (Kim et al. 2008), an in vivo safety monitoring experiment was performed to test the effect of XRT-TMZ on loaded HB1.F3-CD cellular transformation. CRAd-S-pk7-loaded NSCs were implanted in the brains of nude mice with no tumor burden. […]

Assay [2] concerns GBM39. Briefly: Glioma cell viability (MTT) under XRT-TMZ with or without CRAd-S-pk7. Particulars: Homo sapiens, treated with XRT (2 Gy) simultaneously. Type of assay: cell-based. The method, then:
FIGS. 44A and 44B show the optimization of combination therapy in vitro according to one embodiment. (FIG. 44A): Cytotoxicity of U251 and U87 glioma cell lines and GBM39 patient-derived cell line treated with Rx-OV or OV-Rx. Left: The percentage of viability of glioma cells measured by 3-(4,5-dimethylthiazol-2-yl)-2,5-diphenyltetrazolium bromide 96 hours after treatment. Right: Representative light microscope pictures of U87 glioma cell viability (magnification, ×10). (FIG. 44B): Percentage of apoptotic GBM43 cells at 48 hours after treatment with Rx-OV or OV-Rx treatment protocols as measured by the expression of active caspase-3-positive tumor cells by FACS (bottom). […]
A green fluorescent protein (GFP) expressing HB1.F3-CD cell line was generated as described elsewhere (Ahmed et al. 2011a). […] Following lysate preparation, the mean fluorescence intensity (MFI) was estimated for each group of cocultured cells using the GloMax 20/20 Luminometer (Promega). […] U251, U87, and GBM39 cell viability was determined using 3-(4,5-dimethylthiazol-2-yl)-2,5-diphenyltetrazolium bromide (MTT) cell proliferation kit (Roche Diagnostics, Mannheim, Germany, http://www.roche-applied-science.com). The viability was subsequently determined by MTT as described by the manufacturer's protocol. Cell viability was expressed as the percentage of cells alive compared with the dimethyl sulfoxide-treated control. […]

In assay [3] the test system is U251. Described as above. Format: cell-based, human. Particulars: for IC50: Homo sapiens, U-251. The method, then:
(§2) FIGS. 42A and 42B illustrate antitumor effects of CRAd-Survivin-pk7 (CRAd-S-pk7)-loaded NSCs and their combination with XRT-TMZ against glioma cell lines in vitro according to one embodiment. (FIG. 42A): Cytotoxicity of patient-derived GBM43 tumor cells 96 hours after coculture with CRAd-S-pk7-loaded NSCs at the NSC to GBM43 cell ratios of 1:0, 1:2, 1:5, 1:10, or 1:50. Top: Representative light microscope pictures of GBM43 viability. Bottom: Mean luciferase intensity values represented as the percentages of viable glioma cells compared with control. (FIG. 42B): U251 and U87 glioma cell viability measured by 3-(4,5-dimethylthiazol-2-yl)-2,5-diphenyltetrazolium bromide at 96 hours after treatment. The addition of CRAd-S-pk7 (50 infectious units) to conventional XRT-TMZ therapy reduced the percentage of glioma cell viability in both tested cell lines. […] Abbreviations: NSC, neural stem cell; OV, oncolytic virus; TMZ, temozolomide; XRT, radiation therapy.
(§3) FIGS. 44A and 44B show the optimization of combination therapy in vitro according to one embodiment. (FIG. 44A): Cytotoxicity of U251 and U87 glioma cell lines and GBM39 patient-derived cell line treated with Rx-OV or OV-Rx. Left: The percentage of viability of glioma cells measured by 3-(4,5-dimethylthiazol-2-yl)-2,5-diphenyltetrazolium bromide 96 hours after treatment. Right: Representative light microscope pictures of U87 glioma cell viability (magnification, ×10). (FIG. 44B): Percentage of apoptotic GBM43 cells at 48 hours after treatment with Rx-OV or OV-Rx treatment protocols as measured by the expression of active caspase-3-positive tumor cells by FACS (bottom). Top: Representative FACS plots. *, p<0.05; **, p<0.01; ***, p<0.001. Abbreviations: DMSO, dimethyl sulfoxide; OV-Rx, ionizing radiation-temozolomide therapy 24 hours after oncolytic virus; PE, phycoerythrin; Rx-OV, oncolytic virus 24 hours after ionizing radiation-temozolomide therapy.
as §1
(§4) A green fluorescent protein (GFP) expressing HB1.F3-CD cell line was generated as described elsewhere (Ahmed et al. 2011a). GBM43-Fluc cells were plated in 12-well plates and cocultured with HB1.F3-CDGFP cells loaded with CRAd-S-pk7 in the following NSC to glioma cell ratios: 1:0, 1:2, 1:5, 1:10, and 1:50. After 96 hours, the cells were collected, lysed with reporter lysis buffer (Promega, Madison, Wis., http://www.promega.com), and added to luciferase assay reagent (Promega) according to the manufacturer's protocol. Following lysate preparation, the mean fluorescence intensity (MFI) was estimated for each group of cocultured cells using the GloMax 20/20 Luminometer (Promega). The mean luciferase intensity values were represented as the percentage of cells viable compared with mock cells. U251, U87, and GBM39 cell viability was determined using 3-(4,5-dimethylthiazol-2-yl)-2,5-diphenyltetrazolium bromide (MTT) cell proliferation kit (Roche Diagnostics, Mannheim, Germany, http://www.roche-applied-science.com). The viability was subsequently determined by MTT as described by the manufacturer's protocol. Cell viability was expressed as the percentage of cells alive compared with the dimethyl sulfoxide-treated control.
(§5) Next, it was tested whether CRAd-S-pk7 could enhance the therapeutic efficacy of conventional XRT-TMZ. U251 or U87 glioma cells were treated with conventional therapy consisting of 2 Gy XRT and varying concentrations of TMZ (0-1×10^3 µM) or conventional treatment plus 50 IU of CRAd-S-pk7, and cell viability was measured by MTT at 96 hours. […]

Assay [4] relates to U87. Described as above. Type of assay: cell-based, human. Particulars: for IC50: Homo sapiens, U-87 MG. As for the experimental part: as §2, §3, §1, §4, §5
[5] abbreviates: 2 Gy XRT plus 50 IU of CRAd-S-pk7, MTT 96 hours, read-out: IC50 values for TMZ.
Where [6] appears, read: treated with XRT (2 Gy) simultaneously, read-out: IC50.

On to `Cn1nnc2c(C(N)=O)ncn2c1=O` [TMZ, temozolomide], for which the IC50 amounted to 15 µM in assay [1]; 50 µM in assay [2]; 13 µM in assay [3] (setting [5]); 44 µM in assay [3] (setting [6]); 10 µM in assay [4] (setting [5]); 25 µM in assay [4] (setting [6]). Also, the “decrease of TMZ IC50 when OV was added” value in assay [3] (XRT-TMZ) is on record as 31 µM; in assay [4] (XRT-TMZ), 15 µM.
